Source: patent EP4650362A1, “NEUROPROTECTIVE PSD-95 POLYPEPTIDE INHIBITOR AND USE THEREOF” (Beijing Tuo Jie Biopharmaceutical Co. Ltd., priority 2023, dated 2024)
Read-outs that look alike come from different tables or passages of the source. Non-standard residues stand in square brackets, D forms with d. Residues, ends and D or L forms follow the SMILES beside them. No end group written: not given here. Tle = CC(C)(C)[C@H](N)C(=O)O; Dab = NCC[C@H](N)C(=O)O; Aib = CC(C)(N)C(=O)O

Legend:
histamine release = assay: ability to induce histamine release in beagle dogs (plasma); type: in vivo; parameters: Histamine levels (sums of detected histamine and 3-methylhistamine): unit not given here; settings: for Histamine levels (sums of detected histamine and 3-methylhistamine): beagle dog plasma
Procedure: With beagle dogs as test animals, the ability of a polypeptide compound administered via single intravenous infusion to induce histamine release in dogs (plasma) was studied.
This test was performed synchronously with Test Examples 3.9, with four animals per group and blood collection time points set as follows: before administration (0 h), and 2 min, 5 min, and 15 min after the end of intravenous infusion.
Sample analysis and data processing were performed with reference to the methods in 3.7.3. Table 10. Histamine levels at different time points

[1] = pharmacokinetic study in beagle dogs, single intravenous infusion; type: in vivo
Procedure: With standard beagle dogs as test animals, the pharmacokinetic behavior of a polypeptide compound administered via single intravenous infusion in beagle dogs (plasma) was studied.
For polypeptide compound 22, two dose groups were set: 1.2 nmol/g and 0.4 nmol/g. For NA-1, one dose group was set: 1.2 nmol/g. Each group consisted of four animals, with an equal number of males and females. The polypeptide compound was dissolved in 1× PBS, and the polypeptide compound solution was then administered via intravenous infusion over 10 min. The blood collection time points were as follows: before infusion (0 h), 5 min after the start of bolus injection, and 0 min, 2 min, 5 min, 10 min, 15 min, 30 min, 1 h, 2 h, 4 h, 8 h, and 24 h after the end of bolus injection. At each time point, 0.5 mL of blood was collected and transferred to an EDTA-K2 anticoagulation centrifuge tube. Meanwhile, 50 µL of a protease inhibitor was added. After thorough mixing, the mixture was centrifuged at 2000 g for 10 min (4 °C), and the plasma was separated within 1 h, aliquoted into cryopreservation tubes, and stored at -60 to -90 °C. The blood collection-to-centrifugation process was performed under ice bath conditions.
The plasma concentrations of the test compounds were determined using the method in Test Example 3.4.3. Plasma concentration-time curves were plotted, and the pharmacokinetic parameters were calculated using PKSolver software.

[2] = 1.2 nmol/g, 0 min (before administration)
[3] = 1.2 nmol/g, 2 min after the end of intravenous infusion
[4] = 1.2 nmol/g, 5 min after the end of intravenous infusion
[5] = 1.2 nmol/g, 15 min after the end of intravenous infusion
[6] = beagle dogs, intravenous infusion over 10 min, 0.4 nmol/g, Male
[7] = beagle dogs, intravenous infusion over 10 min, 1.2 nmol/g, Female
[8] = beagle dogs, intravenous infusion over 10 min, 1.2 nmol/g, Male
[9] = both sexes, beagle, dog, in vivo, iv, dogs, same dose (1.2 nmol/g), read-out: average T1/2 (converted)
[10] = dog, plasma, beagle dogs, intravenous infusion over 10 min, 0.4 nmol/g, Female
[11] = dog, plasma, beagle dogs, intravenous infusion over 10 min, 0.4 nmol/g, Male
[12] = dog, plasma, beagle dogs, intravenous infusion over 10 min, 1.2 nmol/g, Female
[13] = dog, plasma, beagle dogs, intravenous infusion over 10 min, 1.2 nmol/g, Male
[14] = dog, in vivo, beagle dogs, intravenous infusion over 10 min, 1.2 nmol/g, Female
[15] = dog, in vivo, beagle dogs, intravenous infusion over 10 min, 1.2 nmol/g, Male

For `CC(C)[C@H](NC(=O)[C@H](CC(=O)O)NC(=O)[C@@H](NC(=O)[C@@H](NC(=O)[C@@H](NC(=O)[C@@H](NC(=O)[C@H](CCN)NC(=O)C(C)(C)NC(=O)CNC(=O)[C@@H](CCCNC(=N)N)NC(=O)[C@H](CCCNC(=N)N)NC(=O)[C@H](CCCNC(=N)N)NC(=O)[C@H](CCC(N)=O)NC(=O)[C@@H](CCCNC(=N)N)NC(=O)[C@H](CCCNC(=N)N)NC(=O)[C@H](CCCCN)NC(=O)[C@H](CCCCN)NC(=O)[C@H](N)CCCNC(=N)N)[C@@H](C)O)C(C)(C)C)C(C)(C)C)[C@@H](C)O)C(=O)O` [Polypeptide compound 22, r-K-K-R-r-Q-R-R-r-G-Aib-Dab-T-Tle-Tle-T-D-V] (H-[dR]KKR[dR]QRR[dR]G[Aib][Dab]T[Tle][Tle]TDV-OH), the “Histamine levels (sums of detected histamine and 3-methylhistamine)” value (histamine release; 0.4 nmol/g, 0 min (before administration)) was 6.28±5.01, the “Histamine levels (sums of detected histamine and 3-methylhistamine)” value (histamine release; 0.4 nmol/g, 2 min after the end of intravenous infusion) was 9.45±7.38 and the “Histamine levels (sums of detected histamine and 3-methylhistamine)” value (histamine release; 0.4 nmol/g, 5 min after the end of intravenous infusion) was 11.70±8.39. For the same compound, the “Histamine levels (sums of detected histamine and 3-methylhistamine)” value (histamine release; 0.4 nmol/g, 15 min after the end of intravenous infusion) was 7.97±2.75, the “Histamine levels (sums of detected histamine and 3-methylhistamine)” value (histamine release; [2]) was 7.06±4.14 and the “Histamine levels (sums of detected histamine and 3-methylhistamine)” value (histamine release; [3]) was 12.71±10.47. For the same compound, the “Histamine levels (sums of detected histamine and 3-methylhistamine)” value (histamine release; [4]) was 6.24±1.78, the “Histamine levels (sums of detected histamine and 3-methylhistamine)” value (histamine release; [5]) was 5.81±1.44 and the “changes in histamine levels compared to before administration” value (histamine release; beagle dogs, both doses (0.4 and 1.2 nmol/g)) was “no significant changes in histamine levels”. For the same compound, the AUClast/dose ([1]; beagle dogs, intravenous infusion over 10 min, 0.4 nmol/g, Female) was 5730, the AUClast/dose [1, 6] was 4513 and the Tmax [1, 6] was 10.2 min. The AUClast/dose [1, 7] was 6558, the T1/2 [1, 7] was 255 min and the AUClast/dose [1, 8] was 8183. The T1/2 [1, 8] was 354 min, the Tmax [1, 8] was 10.8 min and the half-life [1, 9] was 306 min. For the same compound, the AUC(0-inf) [1, 10] was 5890 ng·h/mL, the Cmax [1, 10] was 3930 ng/mL and the MRT [1, 10] was 220 min. It also gave a half-life ([1]; dog, plasma, beagle dogs, intravenous infusion over 10 min, 0.4 nmol/g, Female, read-out: T1/2 (converted)) of 170 min, a Tmax ([1]; dog, plasma, beagle dogs, intravenous infusion over 10 min, 0.4 nmol/g, Female, read-out: Tmax) of 10.2 min and an AUC(0-inf) [1, 11] of 5170 ng·h/mL. For the same compound, the Cmax [1, 11] was 2320 ng/mL, the MRT [1, 11] was 277 min and the half-life ([1]; dog, plasma, beagle dogs, intravenous infusion over 10 min, 0.4 nmol/g, Male, read-out: T1/2 (converted)) was 202 min. It also gave an AUC(0-inf) [1, 12] of 18000 ng·h/mL, a Cmax [1, 12] of 8130 ng/mL and an MRT [1, 12] of 295 min. The Tmax ([1]; dog, plasma, beagle dogs, intravenous infusion over 10 min, 1.2 nmol/g, Female, read-out: Tmax) was 10.8 min, the AUC(0-inf) [1, 13] was 23500 ng·h/mL and the Cmax [1, 13] was 7680 ng/mL. The MRT [1, 13] was 422 min, the “average AUC, times that of NA-1” value ([1]; dogs, same dose (1.2 nmol/g)) was 21.3 times and the “average Cmax, times that of NA-1” value ([1]; dogs, same dose (1.2 nmol/g)) was 1.3 times.

In the case of “YGRKKRRQRRRKLSSIESDV [NA-1, YGRKKRRQR RRKLSSIESDV, reference compound]”, the “Histamine levels (sums of detected histamine and 3-methylhistamine)” value (histamine release; [2]) is reported as 7.08±3.15, the “Histamine levels (sums of detected histamine and 3-methylhistamine)” value (histamine release; [3]) is reported as 40.47±64.51 and the “Histamine levels (sums of detected histamine and 3-methylhistamine)” value (histamine release; [4]) is reported as 73.95±131.85. The “Histamine levels (sums of detected histamine and 3-methylhistamine)” value (histamine release; [5]) was 68.80±124.89, the AUClast/dose [1, 7] was 284 and the T1/2 [1, 7] was 2.4 min. The AUClast/dose [1, 8] was 363, the T1/2 [1, 8] was 3 min and the half-life [1, 9] was 2.7 min. The AUC(0-inf) [1, 14] was 855 ng·h/mL, the Cmax [1, 14] was 5030 ng/mL and the MRT [1, 14] was 9 min. For the same compound, the Tmax ([1]; dog, in vivo, beagle dogs, intravenous infusion over 10 min, 1.2 nmol/g, Female, read-out: Tmax) was 7.8 min, the AUC(0-inf) [1, 15] was 1100 ng·h/mL and the Cmax [1, 15] was 6780 ng/mL. The MRT [1, 15] was 9.6 min and the Tmax ([1]; dog, in vivo, beagle dogs, intravenous infusion over 10 min, 1.2 nmol/g, Male, read-out: Tmax) was 10.2 min.
